In ChEMBL document CHEMBL3881525, “Analogs of dehydrophenylahistins and their therapeutic use” (2007):
Converted amounts (≈) assume the structure as drawn. The source made the active and inactive calls. No cut-off for these calls is given here.

Assays:
[1] = Cytotoxicity against human HT-29 cells assessed as reduction in cell viability measured after 48 hrs by resazurin dye-based fluorometric analysis relative to control; format: functional
[2] = Cytotoxicity against human HT-29 cells assessed as reduction in cell viability measured after 48 hrs by resazurin dye-based fluorometric analysis; format: functional
[3] = Cytotoxicity against human PC3 cells assessed as reduction in cell viability measured after 48 hrs by resazurin dye-based fluorometric analysis relative to control; format: functional, PC-3; design: concentration or dose not given beside the values
Aspergillus fumigatus [4] = assay: Antifungal activity against Aspergillus fumigatus isolate 2 measured after 48 hrs by broth dilution method; format: functional; details: isolate 2, 48 h
[5] = Antifungal activity against Epidermophyton floccosum isolate 2 measured after 48 hrs by broth dilution method; format: functional
Trichophyton rubrum = assay: Fungicidal activity against Trichophyton rubrum isolate 2 measured after 48 hrs by broth dilution method; format: functional; details: isolate 2, 48 h
[6] = Antifungal activity against Candida glabrata measured after 48 hrs by broth dilution method; format: functional; details: Nakaseomyces glabratus
[7] = Antifungal activity against Trichophyton rubrum isolate 2 measured after 48 hrs by broth dilution method; format: functional
Aspergillus fumigatus [8] = assay: Antifungal activity against Aspergillus fumigatus isolate 1 measured after 48 hrs by broth dilution method; format: functional; details: isolate 1, 48 h
[9] = system: Trichophyton mentagrophytes; assay: Fungicidal activity against Trichophyton mentagrophytes isolate 1 measured after 48 hrs by broth dilution method; format: functional; details: isolate 1, 48 h
[10] = Antifungal activity against Trichophyton mentagrophytes isolate 2 measured after 48 hrs by broth dilution method; format: functional
[11] = Antifungal activity against Epidermophyton floccosum isolate 1 measured after 48 hrs by broth dilution method; format: functional
[12] = Antifungal activity against Trichophyton rubrum isolate 1 measured after 48 hrs by broth dilution method; format: functional
[13] = Antifungal activity against Trichophyton mentagrophytes isolate 1 measured after 48 hrs by broth dilution method; format: functional
[14] = Antiproliferative activity against human mitoxantrone-resistant HL60/MX2 cells; format: functional, cell-based; details: HL-60
HL-60 = assay: Ratio of EC50 for human mitoxantrone-sensitive HL60 cells to EC50 for human mitoxantrone-resistant HL60/MX2 cells; format: functional
[15] = Antiproliferative activity against human mitoxantrone-sensitive HL60 cells; format: functional, cell-based; details: HL-60
Tubulin (Homo sapiens) [16] = biological target: T1, Tubulin (Homo sapiens) (UniProt P68371+Q9H4B7+P0DPH7+P68366+Q13509+Q71U36+P04350+Q3ZCM7+P07437+P68363+Q9BQE3+Q6PEY2+Q13885+Q9BVA1+Q9BUF5); assay: Induction of microtubule depolymerization in HUVEC at 20 nM measured after 30 mins by DAPI-staining based immunofluorescence analysis; format: cell-based
MES-SA = assay: Ratio of EC50 for taxol-resistant human MES-SA/DX5 cells expressing MDR1 mRNA and P-gp to EC50 for taxol-sensitive human MES-SA cells; format: functional
Tubulin (Homo sapiens) [17] = biological target: T1, Tubulin (Homo sapiens); assay: Induction of microtubule depolymerization in HUVEC at 1.5 to 5 uM by turbidity spectroscopic analysis; format: cell-based
[18] = Antiproliferative activity against taxol-resistant human MES-SA/Dx5 cells expressing MDR1 mRNA and P-gp; format: functional, cell-based

Structure (SMILES) | inhibition (INH) [1] | EC50 ([2]; Homo sapiens, HT-29, 48 h) [µM] | also measured
COc1ccc(/C=c2\[nH]c(=O)/c(=C/c3nc[nH]c3C(C)(C)C)[nH]c2=O)c(O)c1.O=C(O)C(F)(F)F | 8% | > 2 | –
Cn1cccc1/C=c1\[nH]c(=O)/c(=C/c2nc[nH]c2C(C)(C)C)[nH]c1=O.O=C(O)C(F)(F)F | 88% | 0.105 to 0.117 | –
CC(C)(C)c1[nH]cnc1/C=c1\[nH]c(=O)/c(=C/c2ccc(Br)o2)[nH]c1=O.O=C(O)C(F)(F)F | 87% | – | –
CC(C)(C)c1[nH]cnc1/C=c1\[nH]c(=O)/c(=C/c2sccc2B(O)O)[nH]c1=O.O=C(O)C(F)(F)F | 88% | – | –
Cc1ccsc1/C=c1\[nH]c(=O)/c(=C/c2nc[nH]c2C(C)(C)C)[nH]c1=O | 86% | 0.044 to 0.047 | Activity [3]: 81%
C=CC(C)(C)c1[nH]cnc1/C=C1\NC(=O)[C@H](Cc2ccccc2)NC1=O | 87% | 0.394 to 1.6 | MIC (Aspergillus fumigatus [4]): > 16 µg/mL; MIC [5]: > 16 µg/mL; MFC (Trichophyton rubrum): > 16 µg/mL; MIC [6]: > 70 µg/mL; MIC [7]: 0.16 µg/mL (≈ 0.457 µM); MIC (Aspergillus fumigatus [8]): > 16 µg/mL; MFC [9]: > 16 µg/mL; MIC [10]: > 16 µg/mL; MIC [11]: > 16 µg/mL; MIC [12]: > 16 µg/mL; MIC [13]: 16 µg/mL (≈ 45.7 µM)
CC(C)(C)c1[nH]cnc1/C=c1\[nH]c(=O)/c(=C/c2cc(Cl)ccc2[N+](=O)[O-])[nH]c1=O.O=C(O)C(F)(F)F | 86% | 0.0997 to 0.11 | EC50 [14]: 0.019 µM; Ratio EC50 (HL-60): 0.7; EC50 [15]: 0.028 µM
CC(C)(C)c1[nH]cnc1/C=c1\[nH]c(=O)/c(=C/c2ccc3c(c2)OCO3)[nH]c1=O | 84% | 0.082 to 0.0873 | Activity [3]: 95%
COc1cc(OC)c(/C=c2\[nH]c(=O)/c(=C/c3nc[nH]c3C(C)(C)C)[nH]c2=O)c(OC)c1.O=C(O)C(F)(F)F | 2% | > 2 | –
CC(C)(C)c1ccc(O)c(/C=c2\[nH]c(=O)/c(=C/c3ccccc3)[nH]c2=O)c1.O=C(O)C(F)(F)F | 14% | > 2 | –
CC(C)(C)c1[nH]cnc1/C=c1\[nH]c(=O)/c(=C/c2cc(Cl)ccc2O)[nH]c1=O.O=C(O)C(F)(F)F | 37% | > 2 | –
COc1ccc(F)c(/C=c2\[nH]c(=O)/c(=C/c3nc[nH]c3C(C)(C)C)[nH]c2=O)c1.O=C(O)C(F)(F)F | 88% | 0.019 to 0.0203 | –
COc1ccc(/C=c2\[nH]c(=O)/c(=C/c3nc[nH]c3C(C)(C)C)[nH]c2=O)cc1O.O=C(O)C(F)(F)F | 66% | – | –
COc1ccc(O)c(/C=c2\[nH]c(=O)/c(=C/c3nc[nH]c3C(C)(C)C)[nH]c2=O)c1.O=C(O)C(F)(F)F | 25% | > 2 | EC50 [14]: 0.031 µM; Ratio EC50 (HL-60): 1; EC50 [15]: 0.032 µM
CC(C)(C)c1[nH]cnc1/C=c1\[nH]c(=O)/c(=C/c2ccc(C#N)cc2)[nH]c1=O.O=C(O)C(F)(F)F | 14% | – | –
CC(C)(C)c1[nH]cnc1/C=c1\[nH]c(=O)/c(=C/c2cc(Br)cs2)[nH]c1=O.O=C(O)C(F)(F)F | 86% | 1.71 | –
COc1cccc2cc3c(=O)[nH]/c(=C\c4nc[nH]c4C(C)(C)C)c(=O)n3c12 | 58 - 100% | 6.92 to 7.04 | –
COc1cc(/C=c2\[nH]c(=O)/c(=C/c3nc[nH]c3C(C)(C)C)[nH]c2=O)cc(OC)c1 | 87% | 0.042 to 0.0454 | Activity [3]: 82%
Cc1ccc(/C=c2\[nH]c(=O)/c(=C/c3nc[nH]c3C(C)(C)C)[nH]c2=O)s1 | 85 - 97% | 0.08 to 0.0852 | –
CC(C)(C)c1ocnc1/C=c1\[nH]c(=O)/c(=C/c2c3ccccc3cc3ccccc23)[nH]c1=O | – | > 6.23 | –
C=CC(C)(C)c1[nH]cnc1/C=c1\[nH]c(=O)/c(=C\c2ccc(OC)cc2)[nH]c1=O | 63% | – | –
COc1cccc(/C=c2\[nH]c(=O)/c(=C/c3nc[nH]c3C(C)(C)C)[nH]c2=O)c1[N+](=O)[O-].O=C(O)C(F)(F)F | 83% | – | –
CC(C)(C)c1ccc(O)c(/C=c2\[nH]c(=O)/c(=C/c3nc[nH]c3C(C)(C)C)[nH]c2=O)c1.O=C(O)C(F)(F)F | 80% | – | –
COc1cc(/C=c2\[nH]c(=O)/c(=C/c3nc[nH]c3C(C)(C)C)[nH]c2=O)ccc1F.O=C(O)C(F)(F)F | 85% | – | –
C=CC(C)(C)c1[nH]cnc1/C=C1\NC(=O)C(Cc2ccccc2)N=C1OC (centres undefined) | 13% | > 2 | –
COc1cccc(/C=c2\[nH]c(=O)/c(=C/c3nc[nH]c3C(C)(C)C)[nH]c2=O)c1N.O=C(O)C(F)(F)F | 87% | – | –

Structure (SMILES) | inhibition (INH) [1] | EC50 ([2]; Homo sapiens, HT-29, 48 h) [µM] | also measured
CC(C)(C)c1ocnc1/C=c1\[nH]c(=O)/c(=C/c2cc3ccccc3s2)[nH]c1=O | – | > 2 | –
CC(C)(C)c1[nH]cnc1/C=c1\[nH]c(=O)/c(=C/c2cccc3c2OCO3)[nH]c1=O.O=C(O)C(F)(F)F | 82% | – | EC50 ([2]; ht-29): 0.477 to 0.52 µM
CC(C)(C)c1[nH]cnc1/C=c1\[nH]c(=O)/c(=C/c2ccccc2N)[nH]c1=O.O=C(O)C(F)(F)F | 86% | – | –
Cc1ccc(C)c(/C=c2\[nH]c(=O)/c(=C/c3nc[nH]c3C(C)(C)C)[nH]c2=O)c1.O=C(O)C(F)(F)F | 87% | – | –
CSc1ccccc1/C=c1\[nH]c(=O)/c(=C/c2nc[nH]c2C(C)(C)C)[nH]c1=O.O=C(O)C(F)(F)F | 87% | – | –
Cc1c(F)cccc1/C=c1\[nH]c(=O)/c(=C/c2nc[nH]c2C(C)(C)C)[nH]c1=O.O=C(O)C(F)(F)F | 86% | – | –
CC(C)(C)c1[nH]cnc1/C=c1\[nH]c(=O)/c(=C/c2cccc(OC(F)(F)F)c2)[nH]c1=O.O=C(O)C(F)(F)F | 87% | 0.013 to 0.0143 | –
C=CC(C)(C)c1[nH]cnc1/C=C1\N=C(OC)C(Cc2ccccc2)N=C1OC (centres undefined) | 4% | > 2 | –
CCC(C)n1ncn(-c2ccc(N3CCN(c4ccc(OCC5COC(Cn6cncn6)(c6ccc(Cl)cc6Cl)O5)cc4)CC3)cc2)c1=O (centres undefined) [ITRACONAZOLE] | – | – | MIC (Aspergillus fumigatus [8]): 1 µg/mL (≈ 1.42 µM)
COc1ccsc1/C=c1\[nH]c(=O)/c(=C/c2nc[nH]c2C(C)(C)C)[nH]c1=O.O=C(O)C(F)(F)F | 88% | – | –
Cc1[nH]cnc1/C=c1\[nH]c(=O)/c(=C/c2nc[nH]c2C(C)(C)C)[nH]c1=O.O=C(O)C(F)(F)F.O=C(O)C(F)(F)F | 84% | 2.35 to 2.79 | –
CCc1ccc(/C=c2\[nH]c(=O)/c(=C/c3nc[nH]c3C(C)(C)C)[nH]c2=O)o1.O=C(O)C(F)(F)F | 86% | 2.42 | –
CC(C)(C)c1[nH]cnc1/C=c1\[nH]c(=O)/c(=C/c2cc(Br)ccc2O)[nH]c1=O.O=C(O)C(F)(F)F | 13% | > 2 | –
C=CC(C)(C)c1[nH]cnc1/C=c1\[nH]c(=O)/c(=C/c2ccc(OC)cc2)[nH]c1=O | 63% | 6.57 to 6.73 | –
CC(C)(C)c1ocnc1/C=c1\[nH]c(=O)/c(=C/c2c(F)ccc(F)c2F)[nH]c1=O | – | – | Activity (Tubulin (Homo sapiens) [16]): Active; Ratio EC50 (MES-SA): 1.2; Activity (Tubulin (Homo sapiens) [17]): Active; Ratio EC50 (HL-60): 1; IC50 [18]: 0.027 µM
CC(C)(C)c1[nH]cnc1/C=c1\[nH]c(=O)/c(=C/c2ccc(Cl)s2)[nH]c1=O | – | 0.165 to 0.184 | –
COc1cccc(C)c1/C=c1\[nH]c(=O)/c(=C/c2nc[nH]c2C(C)(C)C)[nH]c1=O | – | 0.517 | –
Cc1cccc(/C=c2\[nH]c(=O)/c(=C/c3nc[nH]c3C(C)(C)C)[nH]c2=O)c1C.O=C(O)C(F)(F)F | 87% | 0.00296 to 0.003 | –
CC(C)(C)c1[nH]cnc1/C=c1\[nH]c(=O)/c(=C/c2cccc3c2OCO3)[nH]c1=O | – | – | EC50 ([2]; ht-29): 0.052 µM
COc1cccc(/C=c2\[nH]c(=O)/c(=C/c3nc[nH]c3C(C)(C)C)[nH]c2=O)c1O | 79 - 86% | 5.36 to 5.87 | –
Cc1cccc(/C=c2\[nH]c(=O)/c(=C/c3nc[nH]c3C(C)(C)C)[nH]c2=O)n1.O=C(O)C(F)(F)F.O=C(O)C(F)(F)F | 37% | > 2 | –
CC(C)(C)c1[nH]cnc1/C=c1\[nH]c(=O)/c(=C/c2cc(Cl)cc(Cl)c2)[nH]c1=O.O=C(O)C(F)(F)F | 87% | – | –
COC1=CC(=O)C[C@@H](C)[C@]12Oc1c(Cl)c(OC)cc(OC)c1C2=O [GRISEOFULVIN] | – | – | MIC (Aspergillus fumigatus [4]): 0.5 µg/mL (≈ 1.42 µM); MIC [7]: < 0.015 µg/mL; MIC [10]: 2 µg/mL (≈ 5.67 µM); MIC [11]: 2 µg/mL (≈ 5.67 µM); MIC [12]: 0.5 µg/mL (≈ 1.42 µM); MIC [13]: 1 µg/mL (≈ 2.83 µM)
CC(C)(C)c1[nH]cnc1/C=c1\[nH]c(=O)/c(=C/c2cc([N+](=O)[O-])ccc2Cl)[nH]c1=O | 86% | 0.051 to 0.0534 | Activity [3]: 100%
CC(C)(C)c1ocnc1/C=c1\[nH]c(=O)/c(=C/c2cn(S(=O)(=O)c3ccccc3)c3ccccc23)[nH]c1=O | – | > 6.23 | –
CCc1ccc(/C=c2\[nH]c(=O)/c(=C/c3nc[nH]c3C(C)(C)C)[nH]c2=O)s1.O=C(O)C(F)(F)F | 87% | – | –
